# Experimental data taken from PubChem BioAssay AID330 (DTP/NCI, 2004).
# Toxic doses and inconclusive results are not listed.
# System: P388 leukemia ip, CD2F1 mice, survival T/C
# Assay: NCI In Vivo Anticancer Drug Screen. Data for tumor model P388 Leukemia (intraperitoneal) in CD2F1 (CDF1) mice
# Conditions: endpoint: median survival time, higher = longer survival
# Method in brief: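 Mice carrying the transplanted tumor received test compound or vehicle. Survival was recorded in each group, and the value is the treated-group measurement divided by that of the vehicle-treated control group.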
# [1] = dose: 50.0 mg/kg/injection, schedule: Q01DX009 (ip), vehicle: Klucel (hydroxypropylcellulose) (HPC)
# [2] = dose: 100.0 mg/kg/injection, schedule: Q01DX009 (ip), vehicle: Klucel (hydroxypropylcellulose) (HPC)
# [3] = dose: 200.0 mg/kg/injection, schedule: Q01DX009 (ip), vehicle: Klucel (hydroxypropylcellulose) (HPC)
# [4] = dose: 60.0 mg/kg/injection, schedule: Q01DX005 (ip), vehicle: saline with Tween-80
# [5] = dose: 120.0 mg/kg/injection, schedule: Q01DX005 (ip), vehicle: saline with Tween-80
# [6] = dose: 240.0 mg/kg/injection, schedule: Q01DX005 (ip), vehicle: saline with Tween-80
structure (smiles),measurement,setting,value
Cc1c(O)c2c(c(O)c1Cc1cccc(C#N)c1)C(=O)c1ccccc1C2=O,T/C,"dose: 25.0 mg/kg/injection, schedule: Q01DX009 (ip), vehicle: other",89 % of control
O=Nc1ccc(Cl)cc1C(=O)c1ccccc1,T/C,"dose: 50.0 mg/kg/injection, schedule: Q01DX009 (ip), vehicle: saline",90 % of control
same,T/C,"dose: 100.0 mg/kg/injection, schedule: Q01DX009 (ip), vehicle: saline",104 % of control
same,T/C,"dose: 200.0 mg/kg/injection, schedule: Q01DX009 (ip), vehicle: saline",97 % of control
CCCCCCCCCCCCCCCCOC(=O)c1ccc(O)cc1,T/C,[1],95 % of control
same,T/C,[2],92 % of control
same,T/C,[3],103 % of control
N#[N+]c1ccc2c(S(=O)(=O)Nc3ccc(-c4ccc(NS(=O)(=O)c5cccc6c([O-])c([N+]#N)ccc56)cc4)cc3)cccc2c1[O-],T/C,[1],102 % of control
same,T/C,[2],99 % of control
same,T/C,[3],98 % of control
COC(=O)C1=C(C(=O)OC)CC1,T/C,"dose: 50.0 mg/kg/injection, schedule: Q01DX009 (ip), vehicle: saline with Tween-80",109 % of control
same,T/C,"dose: 100.0 mg/kg/injection, schedule: Q01DX009 (ip), vehicle: saline with Tween-80",109 % of control
same,T/C,"dose: 200.0 mg/kg/injection, schedule: Q01DX009 (ip), vehicle: saline with Tween-80",117 % of control
CCOC(=O)C1=C(O)C(=O)C=C(O)C1=N,T/C,"dose: 60.0 mg/kg/injection, schedule: Q01DX005 (ip), vehicle: saline",94 % of control
same,T/C,"dose: 120.0 mg/kg/injection, schedule: Q01DX005 (ip), vehicle: saline",94 % of control
same,T/C,"dose: 240.0 mg/kg/injection, schedule: Q01DX005 (ip), vehicle: saline",97 % of control
CNc1n[nH]c(-c2ccccc2)n1,T/C,[1],101 % of control
same,T/C,[2],102 % of control
same,T/C,[3],102 % of control
C[n+]1c2ccccc2c(Nc2ccc(NS(=O)(=O)CCCCN=C(N)N)cc2)c2ccc(N)cc21,T/C,"dose: 0.75 mg/kg/injection, schedule: Q01DX005 (ip), vehicle: Klucel (hydroxypropylcellulose) (HPC)",113 % of control
same,T/C,"dose: 1.5 mg/kg/injection, schedule: Q01DX005 (ip), vehicle: Klucel (hydroxypropylcellulose) (HPC)",122 % of control
same,T/C,"dose: 3.0 mg/kg/injection, schedule: Q01DX005 (ip), vehicle: Klucel (hydroxypropylcellulose) (HPC)",151 % of control
C/C=C/c1cc(OC)c2c(c1)[C@H](C)C(c1ccc(O)c(OC)c1)O2 (some centres undefined),T/C,"dose: 37.5 mg/kg/injection, schedule: Q01DX005 (ip), vehicle: Klucel (hydroxypropylcellulose) (HPC)",106 % of control
same,T/C,"dose: 75.0 mg/kg/injection, schedule: Q01DX005 (ip), vehicle: Klucel (hydroxypropylcellulose) (HPC)",97 % of control
same,T/C,"dose: 150.0 mg/kg/injection, schedule: Q01DX005 (ip), vehicle: Klucel (hydroxypropylcellulose) (HPC)",95 % of control
COc1ccc2nc(-c3ccccc3)cc(N=[N+]=[N-])c2c1,T/C,[4],100 % of control
same,T/C,[5],97 % of control
same,T/C,[6],102 % of control
CN(CCO)c1ncnc2c1cnn2C,T/C,"dose: 50.0 mg/kg/injection, schedule: Q01DX005 (ip), vehicle: saline",100 % of control
same,T/C,"dose: 100.0 mg/kg/injection, schedule: Q01DX005 (ip), vehicle: saline",101 % of control
same,T/C,"dose: 200.0 mg/kg/injection, schedule: Q01DX005 (ip), vehicle: saline",100 % of control
CC(=O)n1nc(C)c(-c2onc3ccc(Cl)cc23)c1C,T/C,[1],104 % of control
same,T/C,[2],101 % of control
same,T/C,[3],90 % of control
O=C(Cc1ccccc1)C1=S=C2SCCCN2C1=O,T/C,"dose: 100.0 mg/kg/injection, schedule: Q01DX001 (ip), vehicle: saline with Tween-80",105 % of control
same,T/C,"dose: 200.0 mg/kg/injection, schedule: Q01DX001 (ip), vehicle: saline with Tween-80",97 % of control
same,T/C,"dose: 400.0 mg/kg/injection, schedule: Q01DX001 (ip), vehicle: saline with Tween-80",92 % of control
CCOC(=O)C(C(=O)OCC)(C(=O)C(F)(F)C(F)(F)C(F)(F)C(F)(F)C(=O)C(C(=O)OCC)(C(=O)OCC)c1ccccc1)c1ccccc1,T/C,[4],93 % of control
same,T/C,[5],98 % of control
same,T/C,[6],89 % of control
O=C(CCl)NNC(=O)CCl,T/C,"dose: 12.5 mg/kg/injection, schedule: Q01DX009 (ip), vehicle: Klucel (hydroxypropylcellulose) (HPC)",117 % of control
Cn1c(=O)c2c(nc(/N=C/c3ccco3)n2C)n(C)c1=O,T/C,"dose: 100.0 mg/kg/injection, schedule: Q04DX003 (ip), vehicle: saline",91 % of control
same,T/C,"dose: 200.0 mg/kg/injection, schedule: Q04DX003 (ip), vehicle: saline",90 % of control
same,T/C,"dose: 400.0 mg/kg/injection, schedule: Q04DX003 (ip), vehicle: saline",92 % of control
